From ChEMBL document CHEMBL1139605, “Novel ketal ligands for the glucocorticoid receptor: in vitro and in vivo activity” (Bioorg Med Chem Lett, 2005)
Blank lines part the entries; values can stand above or below the compound they belong to.

Tests used:
[1] = species: Mus musculus; experiment: Effective concentration required for inhibition of interleukin-6 in mouse thioglycolate-elicited peritoneal exudate cell line using 79% radiolabeled Dexamethasone; assay type: functional
[2] = molecular target: T1, Glucocorticoid receptor (Homo sapiens, UniProt P04150); experiment: Inhibition of human glucocorticoid receptor alpha isoform
T1 sequence (P04150 whole entry): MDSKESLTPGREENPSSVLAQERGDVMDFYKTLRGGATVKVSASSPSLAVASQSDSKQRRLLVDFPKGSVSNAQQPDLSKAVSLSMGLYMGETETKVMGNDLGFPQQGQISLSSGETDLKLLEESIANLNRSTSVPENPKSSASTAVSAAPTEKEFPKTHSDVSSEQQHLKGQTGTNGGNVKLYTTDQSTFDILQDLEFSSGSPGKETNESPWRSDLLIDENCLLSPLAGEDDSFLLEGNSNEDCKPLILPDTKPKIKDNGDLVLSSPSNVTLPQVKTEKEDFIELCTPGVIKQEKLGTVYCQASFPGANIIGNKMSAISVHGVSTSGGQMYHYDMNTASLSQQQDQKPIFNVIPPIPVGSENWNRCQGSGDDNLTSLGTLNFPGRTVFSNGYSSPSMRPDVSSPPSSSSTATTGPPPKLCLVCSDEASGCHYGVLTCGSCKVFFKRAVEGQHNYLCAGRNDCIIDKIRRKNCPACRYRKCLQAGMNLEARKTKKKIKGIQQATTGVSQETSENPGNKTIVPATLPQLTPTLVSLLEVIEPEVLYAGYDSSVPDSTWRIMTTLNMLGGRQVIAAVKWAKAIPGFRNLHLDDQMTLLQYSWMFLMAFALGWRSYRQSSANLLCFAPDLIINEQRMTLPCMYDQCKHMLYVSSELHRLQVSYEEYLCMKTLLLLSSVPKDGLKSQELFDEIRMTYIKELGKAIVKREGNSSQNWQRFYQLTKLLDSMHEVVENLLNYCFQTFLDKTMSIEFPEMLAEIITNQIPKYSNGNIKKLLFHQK

[3] = test system: A549; experiment: Effective concentration for inhibition of interleukin-6 in human A549 lung carcinoma cell line using 32% radiolabeled Dexamethasone; assay type: functional, cell-based
[4] = test system: A549; experiment: Effective concentration for inhibition of interleukin-6 in human A549 lung carcinoma cell line using […]% radiolabeled Dexamethasone; assay type: functional, cell-based
[5] = species: Mus musculus; experiment: Effective concentration required for inhibition of interleukin-6 in mouse thioglycolate-elicited peritoneal exudate cell line using 62% radiolabeled Dexamethasone; assay type: functional
[6] = test system: A549; experiment: Effective concentration for inhibition of interleukin-6 in human A549 lung carcinoma cell line using 75% radiolabeled Dexamethasone; assay type: functional, cell-based
[7] = species: Mus musculus; experiment: Effective concentration required for interleukin-6 transrepression in peritoneal exudate cells of C57B1/6 mouse using 62% Dexamethasone; assay type: functional, cell-based
[8] = test system: Mus musculus; experiment: Inhibition of LPS induced TNF-alpha secretion in mouse at an oral dose of 30 mg/kg relative to that produced by Dexamethasone at a dose of 0.3 mg/kg; assay type: functional
[9] = species: Mus musculus; experiment: Effective concentration required for inhibition of interleukin-6 in mouse thioglycolate-elicited peritoneal exudate cell line using 81% radiolabeled Dexamethasone; assay type: functional
[10] = test system: A549; experiment: Effective concentration for inhibition of interleukin-6 in human A549 lung carcinoma cell line using 65% radiolabeled Dexamethasone; assay type: functional, cell-based
[11] = molecular target: T2, Estrogen receptor (Homo sapiens, UniProt P03372); experiment: Binding affinity for human estrogen receptor alpha
T2 sequence (P03372 whole entry): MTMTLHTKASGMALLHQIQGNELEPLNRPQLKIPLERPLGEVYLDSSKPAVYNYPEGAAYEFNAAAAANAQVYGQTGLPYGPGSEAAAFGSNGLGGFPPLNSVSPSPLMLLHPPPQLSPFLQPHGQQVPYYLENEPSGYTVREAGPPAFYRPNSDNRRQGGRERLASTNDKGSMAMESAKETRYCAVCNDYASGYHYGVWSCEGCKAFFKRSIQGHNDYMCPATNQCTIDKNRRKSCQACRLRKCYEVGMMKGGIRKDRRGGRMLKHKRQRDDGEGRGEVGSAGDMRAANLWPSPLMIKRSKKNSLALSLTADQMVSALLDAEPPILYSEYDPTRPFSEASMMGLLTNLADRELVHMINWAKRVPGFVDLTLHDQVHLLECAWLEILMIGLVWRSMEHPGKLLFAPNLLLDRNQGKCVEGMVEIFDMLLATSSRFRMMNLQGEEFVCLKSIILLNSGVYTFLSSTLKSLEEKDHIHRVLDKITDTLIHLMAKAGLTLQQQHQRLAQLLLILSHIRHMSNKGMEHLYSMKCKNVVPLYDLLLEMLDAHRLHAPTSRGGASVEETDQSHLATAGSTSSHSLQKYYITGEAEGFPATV

[12] = molecular target: T1, Glucocorticoid receptor; experiment: Binding affinity for human glucocorticoid receptor
[13] = molecular target: Estrogen receptor beta (Homo sapiens, UniProt Q92731); experiment: Binding affinity for human estrogen receptor beta
Sequence of Estrogen receptor beta (Q92731 whole entry): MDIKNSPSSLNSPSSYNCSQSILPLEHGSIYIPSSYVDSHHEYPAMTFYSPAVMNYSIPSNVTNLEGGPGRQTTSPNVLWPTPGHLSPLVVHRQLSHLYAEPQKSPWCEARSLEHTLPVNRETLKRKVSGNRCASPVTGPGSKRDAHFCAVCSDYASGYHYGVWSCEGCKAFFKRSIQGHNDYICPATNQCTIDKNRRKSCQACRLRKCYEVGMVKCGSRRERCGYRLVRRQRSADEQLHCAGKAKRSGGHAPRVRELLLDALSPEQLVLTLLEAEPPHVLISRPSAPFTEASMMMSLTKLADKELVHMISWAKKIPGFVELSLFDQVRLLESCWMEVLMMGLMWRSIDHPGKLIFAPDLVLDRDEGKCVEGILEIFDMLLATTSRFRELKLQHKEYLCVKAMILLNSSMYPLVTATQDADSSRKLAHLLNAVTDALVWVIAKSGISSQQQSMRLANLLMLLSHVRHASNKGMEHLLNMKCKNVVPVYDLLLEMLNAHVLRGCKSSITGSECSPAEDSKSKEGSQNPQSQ

[14] = molecular target: T3, Mineralocorticoid receptor (Rattus norvegicus, UniProt P22199); experiment: Binding affinity for rat mineralocorticoid receptor
T3 sequence (P22199 whole entry): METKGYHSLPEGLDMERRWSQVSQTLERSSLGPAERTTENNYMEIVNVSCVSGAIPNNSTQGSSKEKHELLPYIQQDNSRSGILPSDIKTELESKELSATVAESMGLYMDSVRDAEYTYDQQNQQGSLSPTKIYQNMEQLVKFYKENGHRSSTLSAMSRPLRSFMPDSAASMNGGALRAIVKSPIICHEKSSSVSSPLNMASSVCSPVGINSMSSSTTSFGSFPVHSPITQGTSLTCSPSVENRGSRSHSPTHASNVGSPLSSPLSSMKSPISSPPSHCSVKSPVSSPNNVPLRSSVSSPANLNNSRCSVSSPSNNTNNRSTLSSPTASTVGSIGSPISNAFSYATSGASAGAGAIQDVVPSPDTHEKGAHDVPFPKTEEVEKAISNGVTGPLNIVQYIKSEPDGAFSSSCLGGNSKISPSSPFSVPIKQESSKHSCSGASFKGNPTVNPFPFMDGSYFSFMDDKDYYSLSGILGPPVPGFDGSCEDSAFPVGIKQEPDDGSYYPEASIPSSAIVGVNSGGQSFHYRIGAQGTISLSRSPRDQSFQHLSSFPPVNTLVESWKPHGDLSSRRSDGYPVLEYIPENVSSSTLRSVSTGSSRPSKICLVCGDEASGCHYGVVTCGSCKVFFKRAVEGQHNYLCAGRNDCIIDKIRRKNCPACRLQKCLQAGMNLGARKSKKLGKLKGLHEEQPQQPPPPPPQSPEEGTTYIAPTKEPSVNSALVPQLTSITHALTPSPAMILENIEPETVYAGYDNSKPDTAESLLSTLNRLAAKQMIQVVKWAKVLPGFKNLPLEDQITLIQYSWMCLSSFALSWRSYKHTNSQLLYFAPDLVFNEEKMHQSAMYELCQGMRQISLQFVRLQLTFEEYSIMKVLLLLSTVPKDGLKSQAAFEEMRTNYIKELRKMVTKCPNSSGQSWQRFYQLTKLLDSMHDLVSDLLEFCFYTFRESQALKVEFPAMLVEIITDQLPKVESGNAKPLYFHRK

[15] = molecular target: T4, Progesterone receptor (Homo sapiens, UniProt P06401); experiment: Binding affinity for human progesterone receptor
T4 sequence (P06401 whole entry): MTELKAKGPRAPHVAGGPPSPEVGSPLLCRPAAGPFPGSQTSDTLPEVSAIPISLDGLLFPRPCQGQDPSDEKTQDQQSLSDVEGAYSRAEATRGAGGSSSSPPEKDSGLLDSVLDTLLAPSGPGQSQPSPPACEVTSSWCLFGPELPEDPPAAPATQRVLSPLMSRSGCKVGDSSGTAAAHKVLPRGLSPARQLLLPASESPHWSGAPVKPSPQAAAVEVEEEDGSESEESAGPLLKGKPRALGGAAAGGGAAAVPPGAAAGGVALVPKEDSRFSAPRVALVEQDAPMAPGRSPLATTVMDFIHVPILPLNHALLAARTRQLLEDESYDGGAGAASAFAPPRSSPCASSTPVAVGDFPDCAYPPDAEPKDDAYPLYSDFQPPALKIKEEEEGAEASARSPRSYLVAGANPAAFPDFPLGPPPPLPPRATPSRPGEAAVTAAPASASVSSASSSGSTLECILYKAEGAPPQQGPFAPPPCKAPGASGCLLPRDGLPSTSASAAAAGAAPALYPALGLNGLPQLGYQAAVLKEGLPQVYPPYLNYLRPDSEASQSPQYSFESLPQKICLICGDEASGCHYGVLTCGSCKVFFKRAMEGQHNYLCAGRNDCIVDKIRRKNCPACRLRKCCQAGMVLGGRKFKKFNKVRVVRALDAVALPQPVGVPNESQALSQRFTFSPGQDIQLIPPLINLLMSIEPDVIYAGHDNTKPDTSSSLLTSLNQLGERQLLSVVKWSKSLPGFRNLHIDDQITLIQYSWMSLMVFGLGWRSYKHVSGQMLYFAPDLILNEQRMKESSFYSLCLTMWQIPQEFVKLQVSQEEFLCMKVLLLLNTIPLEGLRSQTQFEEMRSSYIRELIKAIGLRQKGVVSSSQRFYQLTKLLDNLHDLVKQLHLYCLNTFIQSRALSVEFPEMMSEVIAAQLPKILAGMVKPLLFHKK

[16] = species: Mus musculus; experiment: Effective concentration required for inhibition of interleukin-6 in mouse thioglycolate-elicited peritoneal exudate cell line using 95% radiolabeled Dexamethasone; assay type: functional
[17] = test system: A549; experiment: Effective concentration required for inhibition of interleukin-6 in human A549 lung carcinoma cell line using 102% radiolabeled Dexamethasone; assay type: functional, cell-based
[18] = test system: HepG2; experiment: Effective concentration required for induction of tyrosine aminotransferase in human HepG2 cells using 81% radiolabeled Dexamethasone; assay type: functional, cell-based
[19] = Effective concentration required for induction of glutamine synthetase in human skeletal muscle cells using 97% radiolabeled Dexamethasone; assay type: functional
[20] = test system: A549; experiment: Effective concentration for inhibition of interleukin-6 in human A549 lung carcinoma cell line using 69% radiolabeled Dexamethasone; assay type: functional, cell-based

SMILES: C[C@H]1OC2(CCCC3=Cc4c(cnn4-c4ccc(F)cc4)C[C@@]32C)O[C@@H]1C
- IC50 [2]: 0.01 µM

SMILES: C=C[C@H]1OC2(CCCC3=Cc4c(cnn4-c4ccc(F)cc4)C[C@@]32C)O[C@@H]1C=C
- EC50 [9]: 0.0087 µM
- EC50 [10]: 0.0053 µM
- IC50 [11]: > 10 µM
- IC50 [12]: 0.0012 µM
- IC50 [13]: > 10 µM
- IC50 [2]: 0.0012 µM
- IC50 [14]: 7.4 µM
- IC50 [15]: > 1 µM

SMILES: C[C@]12Cc3cnn(-c4ccc(F)cc4)c3C=C1CCC21OCCO1 (stereo in doubt; 13)
- EC50 [20]: 0.028 µM
- IC50 [11]: > 10 µM
- IC50 [12]: 0.073 µM
- IC50 [13]: > 10 µM
- IC50 [2]: 0.073 µM
- IC50 [14]: > 10 µM
- IC50 [15]: > 1 µM

SMILES: C[C@@H]1C[C@@H](C)OC2(CCC3=Cc4c(cnn4-c4ccc(F)cc4)C[C@@]32C)O1 (stereo in doubt; form 2)
- IC50 [2]: 0.0084 µM

Continued by falling IC50 [2], values first:

- IC50 [2]: 0.049 µM
SMILES: C=C[C@H]1CO[C@@]2(CCC3=Cc4c(cnn4-c4ccc(F)cc4)C[C@@]32C)O1

- EC50 [4]: 0.012 µM
- IC50 [2]: 0.028 µM
SMILES: CC1(C)COC2(CCC3=Cc4c(cnn4-c4ccc(F)cc4)C[C@@]32C)OC1

- EC50 [16]: 0.0057 µM
- EC50 [17]: 0.0045 µM
- IC50 [2]: 0.0138 µM
- EC50 [18]: 0.211 µM
- EC50 [19]: 0.032 µM
SMILES: C[C@]12Cc3cnn(-c4ccc(F)cc4)c3C=C1CCC21OCCO1 (stereo in doubt; 2)

- IC50 [2]: 0.012 µM
SMILES: C[C@]12Cc3cnn(-c4ccc(F)cc4)c3C=C1CC[C@]21OC[C@H](c2ccccc2)O1

- EC50 [5]: 0.036 µM
- EC50 [6]: 0.024 µM
- IC50 [2]: 0.0066 µM
- EC50 [7]: 0.036 µM
SMILES: CC[C@H]1OC2(CCC3=Cc4c(cnn4-c4ccc(F)cc4)C[C@@]32C)O[C@@H]1CC
- Inhibition [8]: 97.8%

- EC50 [1]: 0.078 µM
- IC50 [2]: 0.0055 µM
- EC50 [3]: 0.019 µM
SMILES: CC[C@H]1OC2(CCCC3=Cc4c(cnn4-c4ccc(F)cc4)C[C@@]32C)O[C@@H]1CC
